Among the data in PubChem BioAssay (NCI) are TGI values, retold here.

The assay concerns SN12K1 renal. The experiment in a line: NCI-60 cell line screen, 48 h.

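Each compound was tested at five concentrations against cells in 96-well plates for 48 hours. TGI marks complete inhibition of growth.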

In the case of `CC[C@@]1(O)C(=O)OCc2c1cc1n(c2=O)Cc2cc3cc(O)ccc3nc2-1`, the TGI worked out at 937 nM.
